Laboratory results published in US20100184807A1, “Methods to inhibit tumor cell growth by using proton pump inhibitors” (Bio-Quant, Inc., priority 2008, published 2010).

Columns and labels:
Assay in all cases: MTT tumor cell growth assay
Format in all cases: cell-based
NAMALWA (lymphoma) = conditions: NAMALWA cells, lansoprazole 1-100 μM, 48 hours
Protocol: (§1) In one study, adherent cells were plated approximately 16-24 hours before the day of the experiment in 180 μl growth media. On the day of the experiment, the plated adherent cells were analyzed and counted and suspension cells were plated in 180 μl growth media. 10× lansoprazole compounds and vehicle was prepared. The 10× lansoprazole compounds were prepared by diluting lansoprazole to final concentrations of 100 μM, 30 μM, 10 μM, 3 μM, and 1 μM. A vehicle was prepared by preparing a solution of PBS, equivalent to the volume used for 10 μM lansoprazole wherein the 1× solution constitutes ˜0.06% PBS. 10 μl of the various 10× lansoprazole solutions and the vehicle were added to the cells. The cells were incubated at 37° C., 5% CO2 for 48 hours. The media was then aspirated. The cell suspension was then spun at 1500 RPM for 10 minutes. The media was slowly removed. 200 μl of MTT solution was added to each well with a concentration of 0.863 mg/ml MTT in the growth media. The cells were incubated at 37° C., 5% CO2 for 4 hours and the medium is then aspirated. The plate containing the cell suspension was then spun at 1500 RPM for 10 minutes. The media was slowly removed using a multichannel pipettor. 100 μl of DMSO was then added to each well. The cells were incubated at 37° C., 5% CO2 for 5 minutes and the absorbance was obtained at 560 nm using a Dynex Opsys MR plate reader. The cells used for this procedure were the following cell lines: IGROV1 (ovarian cancer); OVCAR 8 (ovarian cancer); ES-2 (ovarian cancer); CAOV3 (ovarian cancer); OVCAR5 (ovarian cancer); SUDHL4 (lymphoma); RPMI8226 (myeloma); RPMI6666 (Hodgkin's lymphoma); NC37 (lymphoma); GDM-1 (leukemia); MC/CAR (prostate cancer); DU-145 (prostate cancer), J45-01 (leukemia), MOLT3 (leukemia), HUT78, J-gamma-1 (leukemia), MCF7 […], COL0205 (colon cancer), HL60 CLONE 15 (leukemia), T47D (breast cancer), P116 (intestinal cancer), KU812 (leukemia), SW620 (colon cancer), MK92-M1 (lymphoma), MV-4-11 (leukemia), HS578T (breast cancer), HT29 (colon cancer), HCT 116 (colon cancer), CAKI-1 (kidney cancer), A549 (lung cancer), H460 (lung cancer), A3 (colon cancer), MDA-MB231 […], MALME 3M (melanoma), RXF393 (kidney cancer), RS4.11 (leukemia), PC3 (prostate cancer), OVCAR3 (ovarian cancer), MDA-MB435 (melanoma), HUT102 (lymphoma), HL60 (leukemia), CCRF-CEM (leukemia), HUT78 (lymphoma), 786-O (kidney cancer), ACHN (kidney cancer), A498 (kidney cancer), H226 (lung cancer), H522 (lung cancer), HOP92 (lung cancer), SNB 19 (brain cancer), OVCAR4 (ovarian cancer), H9 (lymphoma), UO-31 (kidney cancer), HH (lymphoma), DAUDI (leukemia), LOXIMVI (melanoma), NAMALWA (lymphoma), EKVX (lung cancer), DOHH2 (lymphoma), SNB75 (brain cancer), SKMEL28 (melanoma), SKMEL5 (melanoma), SKMEL2 (melanoma), M14 (melanoma), UACC 257 (melanoma), H332M (lung cancer), KM12 (colon cancer), HCC2998 (colon cancer), G401 (kidney cancer), RS1184 (lymphoma), MC116 (leukemia), MOLT4 (leukemia), JM1 (liver cancer), HOP-62 (lung cancer), HCT-15 (colon cancer), SF-539 (brain cancer), SF295 (brain cancer), ST486 (lymphoma), U251 (brain cancer), and UACC-62 (melanoma).

NK92MI = NK92MI cells, lansoprazole 1-100 μM, 48 hours
Protocol: as §1

H226 (lung cancer) = conditions: H226 cells, lansoprazole 1-100 μM, 48 hours
Protocol: as §1

MV-4-11 (leukemia) = conditions: MV-4-11 cells, lansoprazole 1-100 μM, 48 hours
Protocol: as §1

KU812 (leukemia) = conditions: KU812 cells, lansoprazole 1-100 μM, 48 hours
Protocol: as §1

HUT78 (lymphoma) = conditions: HUT78 cells, lansoprazole 1-100 μM, 48 hours
Protocol: as §1

PC3 (prostate cancer) = conditions: PC3 cells, lansoprazole 1-100 μM, 48 hours
Protocol: as §1

RXF393 (kidney cancer) = conditions: RXF393 cells, lansoprazole 1-100 μM, 48 hours
Protocol: as §1

J-gamma-1 (leukemia) = conditions: J-gamma-1 cells, lansoprazole 1-100 μM, 48 hours
Protocol: as §1

MDA-MB-435 (melanoma) = conditions: MDA-MB-435 cells, lansoprazole 1-100 μM, 48 hours
Protocol: as §1

MDA-MB-231 = MDA-MB-231 cells, lansoprazole 1-100 μM, 48 hours
Protocol: as §1

A3 (colon cancer) = conditions: A3 cells, lansoprazole 1-100 μM, 48 hours
Protocol: as §1

MOLT3 (leukemia) = conditions: MOLT3 cells, lansoprazole 1-100 μM, 48 hours
Protocol: as §1

J45-01 (leukemia) = conditions: J45-01 cells, lansoprazole 1-100 μM, 48 hours
Protocol: as §1

UO-31 (kidney cancer) = conditions: UO-31 cells, lansoprazole 1-100 μM, 48 hours
Protocol: as §1

H322M = H322M cells, lansoprazole 1-100 μM, 48 hours
Protocol: as §1

HCC2998 (colon cancer) = conditions: HCC2998 cells, lansoprazole 1-100 μM, 48 hours
Protocol: as §1

ST486 (lymphoma) = conditions: ST486 cells, lansoprazole 1-100 μM, 48 hours
Protocol: as §1

Measured: tumor cell growth reduction

Cc1c(OCC(F)(F)F)ccnc1C[S+]([O-])c1nc2ccccc2[nH]1 (stereo not drawn) [lansoprazole]
significant tumor cell growth reduction: all assays above
